Results from patent US20170252362A1, “METHODS & COMPOUNDS USEFUL IN HEMATOPOIETIC STEM CELL MEDICINE” (ECOLE POLYTECHNIQUE FEDERALE DE LAUSANNE (EPFL), priority 2014, published 2017).

Columns and labels:
HSCs [1] = assay: In vivo activation of HSC by IFN-α, cell cycle (Ki67) and ΔΨm analysis; set-up: species or system mouse
Method: In order to verify this hypothesis, cell cycle phase analyses were performed using Ki67 and Hoechst staining as described below on freshly isolated HSCs that were separated into low and high ΔΨm. […] Under homeostatic conditions, quiescent state, corresponding to ca. 70% of cells, and cycling HSCs have indistinguishable ΔΨm profiles.
A similar analysis was performed on HSCs that were activated to exit dormancy directly in vivo using interferon-alpha (IFN-α) treatment of mice (Essers et al., 2009, Nature 458, 904-908) through subcutaneous injections of IFN-α carried out 48 and 24 hours prior to cell isolation.
HSC were activated to exit dormancy by interferon-alpha (IFN-α) treatment following published protocols (Essers et al., 2009, supra). Briefly, subcutaneous injections in C57B1/6J mice were carried out with 10,000 U of IFN-α (R&D systems) 48 and 24 hours prior to bone marrow extraction. Control mice were injected with an equivalent volume of the vehicle (PBS+0.1% BSA).

[2] = system: hematopoietic stem and progenitor pool sizes in the bone marrow; assay: Flow cytometry analysis of hematopoietic stem and progenitor pool sizes in bone marrow of mice fed the agent; assay type: in vivo, mouse; conditions: for number of hematopoietic stem cells (ST-HSC / most primitive HSC) by flow cytometry: Example 8, one week treatment, FIG. 9A
Method: Bone marrow (BM) cells were isolated from C57Bl/6J and C57Bl/6J Ly5.1 from crushed femora and tibia. Flow cytometry analysis of hematopoietic stem and progenitor cells was performed on freshly isolated bone marrow (BM). Cell suspensions were filtered through a 70 μm cell strainer and erythroid cells were eliminated by incubation with red blood cells lysis buffer (eBioscences). Lineage-positive cells were removed with a magnetic lineage depletion kit (Miltenyi Biotech). Cell suspensions were stained with a panel of specific antibodies for stem and progenitor cells and analyzed or FACS-sorted respectively on a BD LSRII and BD FACS Aria II.
(§1) C57Bl/6J and C57Bl/6J Ly5.1 were purchased from Charles River Laboratories International and maintained in micro-isolator cages. Mice were provided continuously with sterile food, water and bedding. Nicotinamide riboside (NR) (custom synthesized as triflate salt by Novalix in Strasbourg) was supplied in the food at 0.4 g/Kg mouse and mice were treated for 1 and 4 weeks respectively.

[3] = system: HSC activity of donor bone marrow; assay: Transplantation of BM derived from agent-treated donor mice (engraftment, blood chimerism); assay type: in vivo, mouse; conditions: for short-term HSC activity of transplanted BM from treated donors (blood chimerism): Example 8, FIG. 9C, compared to control group
Text: Therefore, NR-treatment is not expected to exhaust the LT-HSC population, which is often the problem when increasing short-term HSCs and their progeny.

[4] = system: hematopoietic progenitor compartments; assay: Colony-forming functional assay (CFUs, Methocult) on BM derived from agent-treated mice; assay type: in vivo, mouse
[5] = system: blood recovery and survival of transplanted mice; assay: Survival and blood recovery of lethally irradiated, transplanted mice treated with the agent; assay type: in vivo, mouse; conditions: for blood recovery of post-transplanted mice (platelets, granulocytes/neutrophils): Example 8, FIG. 9D, treated recipients versus control
Method: Given the dependency of differentiated hematopoietic cells to the progenitor compartments, the effect of a mitochondrial membrane potential reducing agent according to the invention, in particular NR, in improving blood recovery and survival of transplanted mice was assessed. Peripheral blood count started at day 13 after transplantation, and it was repeated every 3 or 4 days.
as §1

[6] = system: HSC mitochondrial activity; assay: In vitro HSC mitochondrial activity with JC1 and TMRM dyes; assay type: cell-based, mouse
Text: The effects of NR on HSC mitochondrial activity has been assessed by measuring mitochondrial activity using JC1 (Mantel et al., 2010, Cell Cycle, 9(10), 2008-17) and TMRM dyes (Vannini et al., 2015, in preparation; Nakada et al., 2010, Nature, 468, 653-658).
The effect of agents on HSC mitochondrial activity has been assessed by measuring mitochondrial activity as described in Example 7 above.

HSCs [7] = assay: Single cell proliferation kinetics and division synchrony by time-lapse microscopy; assay type: cell-based, mouse; conditions: single cell level
Method: Furthermore, at single cell level the effect of NR on cell proliferation kinetics was determined as described previously ([…] et al., 2012, supra). […] To follow the behavior of HSCs at single cell level, cells were sorted directly into 96-well plates coated with microwell arrays. Microwells containing a single cell at the time of plating were tracked by time-lapse microscopy. Proliferation kinetics were assessed using a Zeiss Axio Observer microscope equipped with an incubator chamber, temperature and CO2 control. Images were automatically acquired every three hours over five days using the imaging analysis software of MetaMorph (Visitron, Germany). Hydrogel microwell arrays were directly casted within individual wells of a 96-well plate as described (Kobel et al., 2009, Langmuir, 25(15):8774-9; Lutolf et al., 2009, Integr Biol (Camb), 1(1):59-69). Briefly, stoichiometrically balanced aqueous solutions of multi-arm poly(ethylene glycol) (PEG), end-functionalized with thiol and vinylsulfone groups were mixed and molded against a PDMS microstamp. Upon completion of crosslinking, the stamp was removed and the hydrogel microwell array was hydrated overnight at 4° C. and then sterilized with ultraviolet light.

human hematopoiesis = assay: Human hematopoiesis in humanized NSG mice fed NR-supplemented diet; assay type: in vivo, human CD34+ cells in NSG mice; conditions: supplemented diet for one week
Text: NOD scid gamma (NSG) mice which are a mouse strain NOD Cg-Prkdcscid Il2rgtm1Wjl/SzJ (005557) which correspond to a mutant mouse which combines the features of the NOD/ShiLtJ background (conferring a number of deficiencies in innate immunity), the severe combined immune deficiency mutation (SCID) and an IL2 receptor gamma chain deficiency which disables cytokine signaling, were purchased from The Jackson Laboratory and bred, treated, and maintained under pathogen-free conditions in-house. New-born NSG mice were irradiated with 1Gy and 6 hours later injected intra-hepatically (IH) with 10e6 human CD34 HSCs (purified CD34+ from mobilized blood, Cellsystems Biotechnologie GmbH, Troisdorf, DE). The level of human reconstitution (% of human CD45+ cells) was analyzed 12 weeks later by FACS staining of tail vein blood samples. […] From the following day one cohort was given low fat food supplemented with NR as compared to the group treated with NA or Acipimox (n=10-12 mice/group), as indicated above, and the other cohort was given control diet. After seven days, tail vein blood was collected in EDTA tubes and mice sacrificed. Bone marrow cells were collected as described for C57BL6 mice, and both blood and bone marrow cells stained and analyzed for a panel of human lineage specific antibodies as described. […]

[8] = system: HSC mitochondrial activity; assay: In vivo assay of HSC mitochondrial activity: TMRM flow cytometry of freshly isolated HSC from mice fed the compounds; set-up: species or system mouse
Text: The effect of agents on HSC mitochondrial activity has been assessed by measuring mitochondrial activity in vivo: freshly isolated HSC from mice fed with the compounds were stained by TMRM and analyzed by flow cytometry.

Compound: IFN-α
- ΔΨm levels of quiescent versus cycling HSCs (HSCs [1]; after IFN-α treatment, MitoTracker Deep Red): not significantly different
- number of cycling (Ki67+) HSCs (HSCs [1]; subcutaneous injections 48 and 24 hours prior to cell isolation, control ca. 30): ~50%

Compound: NC(=O)c1ccc[n+]([C@@H]2O[C@H](CO)[C@@H](O)[C@H]2O)c1 [NR, nicotinamide riboside]
- hematopoietic stem and progenitor compartments in BM ([2]; 1 week treatment through the food, flow cytometry): increased cellularity is observed in all hematopoietic progenitor compartments
- hematopoietic progenitor compartments in BM ([2]; 4 weeks treatment through the food, flow cytometry): only the short-term compartment (ST-HSC) is expanded
- number of hematopoietic stem cells (ST-HSC / most primitive HSC) by flow cytometry [2]: expanded ST-HSC compartment
- HSC pool ([2]; short- and long-term treatment): not accompanied by a reduction of the HSC pool
- engraftment of BM derived from treated mice ([3]; 1-month treated donor mice, transplantation assay): do not show engraftment advantage
- short-term HSC activity of transplanted BM from treated donors (blood chimerism) [3]: higher ST-HSC activity
- colonies in CFUs assay from BM of treated mice ([4]; 1 and 4 weeks treatment, especially short-term treated mice): confirmed the expansion of hematopoietic progenitor compartments
- lineage of most striking colony increase ([4]; CFUs from BM of treated mice): most striking in the Mk lineage
- progenitor population / total and myeloid colonies in CFUs from BM of treated mice ([4]; Example 8, FIG. 9B): expanded progenitor population
- blood recovery of post-transplanted mice (platelets, granulocytes/neutrophils) [5]: faster exit of neutropenia and thrombocytopenia
- survival of transplanted mice ([5]; limiting-dose transplanted mice, all untreated mice died within one month): 80%
- exit of neutropenia (neutrophils >0.5 G/l) relative to controls ([5]; transplanted mice, on average): one week before controls
- recovery from severe thrombocytopenia (platelet count >100 G/l) earlier relative to control mice ([5]; transplanted mice, on average): 10 days
- neutrophil and platelet recovery ([5]; transplanted mice, peripheral blood counts from day 13): faster neutrophil and platelet recovery
- mitochondrial activity of HSCs ([6]; HSCs exposed in vitro, JC1 and TMRM): robust decrease in mitochondrial activity
- proportion of cells with low mitochondrial activity ([6]; dividing HSCs in vitro): raised the proportion of cells with low mitochondrial activity
- percentage of cells with high mitochondrial activity ([6]; in vitro, compared to control conditions): reduces the percentage of cells with high mitochondrial activity to half
- percentage of HSC daughters that maintain a low mitochondrial activity ([6]; in vitro, control about 5%): about 10%
- asynchronous division (HSCs [7]): significant increase in asynchronous division
- proliferation kinetics (HSCs [7]): do not have a major change in their proliferation kinetics
- human lymphocyte production (human hematopoiesis): significant increase in lymphocyte production
- human monocyte production (human hematopoiesis): trend towards increased monocyte production
- number of short-term HSCs with low mitochondrial activity ([8]; freshly isolated HSC from fed mice, TMRM, FIG. 12): able to push the number of short-term HSCs with low mitochondrial activity very significantly

Compound: Cc1cnc(C(=O)O)c[n+]1[O-] [Acipimox, acipimox, reference compound]
- short-term HSC activity of transplanted BM from treated donors (blood chimerism) [3]: no significant difference
- blood recovery of post-transplanted mice (platelets, granulocytes/neutrophils) [5]: slower platelet and granulocyte recovery

Compound: O=C(O)c1cccnc1 [NA, nicotinic acid, reference compound]
- number of hematopoietic stem cells (ST-HSC / most primitive HSC) by flow cytometry [2]: do not show a significant difference
- Megakaryocytes (MkE) colonies ([4]; Example 8, FIG. 9B): reduction of Megakaryocytes (MkE) colonies
- progenitor population / total and myeloid colonies in CFUs from BM of treated mice ([4]; Example 8, FIG. 9B): do not show a significant difference in total and myeloid colonies
- ability to reduce mitochondrial membrane potential in HSCs ([8]; mice fed with the compounds): not able to significantly reduce mitochondrial membrane potential in HSCs
